# Laboratory results as given in PMC9241695, “Selective Metal Chelation by a Thiosemicarbazone Derivative Interferes with Mitochondrial Respiration and Ribosome Biogenesis in Candida albicans” (Microbiology Spectrum, 2022).
# Assays:
# C. albicans SC5314 = test: RNA-seq transcriptional analysis; type: cell-based, Candida albicans
# Description: C. albicans SC5314 cells were inoculated into RPMI 1640 medium at a concentration of 1 × 10^7 cells/mL and incubated at 30°C for 6 h. The cells were then harvested, and RNA extraction was performed with the Yeast RNA Kit (OMEGA, Guangzhou, China). RNA purity was evaluated using a Nanodrop-2000, and RNA integrity was assessed using the RNA Nano 6000 detection kit. RNA-Seq libraries are prepared using NEB Next Ultra RNA Library Prep Kit (NEB, MA, USA) for Illumina. The cDNA library quality was quantified first by using Qubit 2.0 Fluorometer, detected on Agilent 2100 bioanalyzer. Clustering was performed in the cBot cluster generation system. After cluster generation, the library preparations were sequenced on the Illumina Novaseq platform. Library construction and sequencing were performed by Novogene (Beijing, China). Each sample was analyzed in triplicate.
# The raw data in fastq format were first processed by an internal perl script. In this step, clean data were obtained by applying various processing methods. […] The clean reads were individually mapped to the C. albicans SC5314 reference genome using HISAT2 (v2.0.5). The fragments per kilobase of transcript per million mapped reads (FPKM) value was calculated for each gene, and the read counts were mapped to the genes. […] Genes with an adjusted P value < 0.05 and |log2FoldChange| > 1 as detected by DESeq2 were considered DEGs. […]
# C. krusei CK1 = test: Microbroth dilution MIC80; type: cell-based, Candida krusei; settings: Pichia kudriavzevii, CK1
# From the text: Compound library. The thiosemicarbazone derivatives Triapine and COTI-2 were purchased from Med Chem Express (MCE). The other 87 thiosemicarbazones used in this study were previously synthesized by our collaborators (1, 2). Their structures are shown in Table 1 and Table S1 to help the reader clearly understand the relationship between structure and activity.
# Strains and culture conditions. Clinically derived C. albicans isolates, including G5, F5, and Gu5, were kindly provided by Professor Joachim Morschhäuser of the University of Würzburg. Other clinical C. albicans isolates were kindly donated by Professor Qingguo Qi of Shandong University and Qianfoshan Hospital of Shandong Province Other Candida strains were obtained from Jinan Central Hospital.
# The zap1 mutant and its complemented strain were kindly provided by Professor Aaron P. Mitchell of Carnegie Mellon University (3). The C. neoformans strains used in this study was kindly donated by Professor Guojian Liao of Southwest University and A. fumigatus strain used in this study was provided by Professor Ling Lu of Nanjing Normal University. Before in vitro and in vivo experiments, all C. albicans strains were grown on YPD agar plates. After culturing at 30°C for 24 h, colonies of each strain were cultured in liquid YPD medium at 30°C with continuous shaking […]
# Antifungal susceptibility testing. To determine in vitro antifungal activities, the microbroth dilution method was carried out in RPMI1640 medium according to the guidelines of the Clinical and Laboratory Standards Institute (4, 5). The initial concentration in RPMI1640 medium was 1 × 10^3 CFU/mL for the C. albicans and C. neoformans suspensions but 1 × 10^4 CFU/mL for A. fumigatus. The range of final drug concentrations was 0.0156–64 μg/mL. The plates were incubated at35°C for 24 […]
# h (for C. albicans, C. krusei, C. tropicalis, C. parapsilosis) or 48 h (for C. neoformans, A. fumigatus). The MIC was determined based on visible growth inhibition compared with the control. All experiments were performed in duplicate. […]
structure (smiles),measurement,setting,value
C/C(=N\NC(=S)N(C)C)c1ccccn1 [Compound 19ak],Expression of genes involved in iron and zinc acquisition,C. albicans SC5314; high dose (2 μg/mL),downregulated
same,Expression of genes involved in iron and zinc acquisition,C. albicans SC5314; low dose (0.5 μg/mL),strongly induced
same,MIC80,C. krusei CK1,0.125 µg/mL
